From patent US20260130933A1, “PHARMACEUTICAL COMPOSITION FOR PREVENTION OR TREATMENT OF NEPHROPATHY AND/OR DIABETES MELLITUS, COMPRISING ENAVOGLIFLOZIN” (DAEWOONG PHARMACEUTICAL CO., LTD., priority 2022, published 2026)

Test: Example 3: phase 3 trial, enavogliflozin 0.3 mg vs dapagliflozin 10 mg once a day for 24 weeks added to metformin and gemigliptin in patients with type 2 diabetes (same endpoints, rescue drug)
Format: in vivo, human
Method: 1) when Metformin (≥1,000 mg/Day) was Administered at a Constant Dose for at Least 8 Weeks Prior to Pre-Visit (Pre-Screening) • Metformin (≥1,000 mg/day) and gemigliptin (50 mg/day) were co-administered during the 8-week stabilization period. […] 4) when Metformin (≥1,000 mg/Day) and Gemigliptin (50 mg/Day) were Co-Administered at Constant Doses for at Least 8 Weeks Prior to Pre-Visit (Prescreening) • Without a separate stabilization period, Pre-visit (pre-screening) was Visit 1 (screening).
Subjects who met the inclusion/exclusion criteria continued to receive metformin and gemigliptin while receiving a placebo of the clinical trial drug in a single-blind (subject-blinded) state for a 2-week run-in period.
Here, the randomized subjects were stratified according to the administration therapy (co-administration with two or less agents (one or two agents) or three or more agents) of a conventional hypoglycemic agent (before washout of another hypoglycemic agent) within 24 weeks prior to obtaining written informed consent and by an HbA1c value (<8% or ≥8%) at Visit 1 (screening) measured in the central laboratory.
The randomized subjects were administered two tablets of the clinical trial drug corresponding to each administration group once a day, and then visited the institution at weeks 6, 12, 18, and 24 during the 24-week administration period to conduct efficacy and safety assessments. In addition, during the clinical trial period, they were instructed to exercise regularly and control their diet without changing their daily life patterns.
• 1) Change in HbA1c at week 24 after administration of clinical trial drug compared to Visit 2 (randomization)
• 1) Change in HbA1c at each time point of weeks 6, 12, and 18 after administration of clinical trial drug compared to Visit 2 (randomization) • 2) Change in FPG at each time point of weeks 6, 12, 18, and 24 after administration of clinical trial drug compared to Visit 2 (randomization) • 3) Proportion of subjects achieving HbA1c<7% at each time point of weeks 6, 12, 18, and 24 after administration of clinical trial drug • 4) Proportion of subjects achieving HbA1c<6.5% at each time point of weeks 6, 12, 18, and 24 after administration of clinical trial drug • 5) Proportion of subjects achieving therapeutic response (HbA1c change (HbA1c at Visit 2—HbA1c at each evaluation time point)>0.5% or HbA1c<7% at each evaluation time point compared to Visit 2 (randomization)) at each time point of weeks 6, 12, 18, and 24 after administration of clinical trial drug • 6) Proportion of subjects achieving therapeutic response (HbA1c change (HbA1c at Visit 2—HbA1c at each evaluation time point)>0.7% or HbA1c<7% at each evaluation time point compared to Visit 2 (randomization)) at each time point of weeks 6, 12, 18, and 24 after administration of clinical trial drug • 7) Proportion of subjects achieving therapeutic response (HbA1c change (HbA1c at Visit 2—HbA1c at each evaluation time point)>1% or HbA1c<7% at each evaluation time point compared to Visit 2 (randomization)) at each time point of weeks 6, 12, 18, and 24 after administration of clinical trial drug

[1] = week 6, per-protocol set, enavogliflozin 0.3 mg, dapagliflozin 10 mg
[2] = week 12, modified per-protocol set 1, enavogliflozin 0.3 mg vs dapagliflozin 10 mg
[3] = week 12, modified per-protocol set 1, enavogliflozin 0.3 mg, dapagliflozin 10 mg
[4] = week 12, modified per-protocol set 2

## OC[C@H]1O[C@@H](c2cc(Cc3ccc(C4CC4)cc3)c(Cl)c3c2CCO3)[C@H](O)[C@@H](O)[C@@H]1O [Enavogliflozin, (2S,3R,4R,5S,6R)-2-(7-chloro-6 (4-cyclopropylbenzyl)-2,3-dihydrobenzofuran-4-yl)-6-(hydroxymethyl)tetrahydro-2H-pyran-3,4,5-triol]
[1]
  Fasting C-peptide, Mean: 0.67 ng/mL
  Fasting C-peptide, Median: 0.63 ng/mL
  HbA1c, Mean: 7.06%
  HbA1c, Median: 6.94%
  Subjects achieving HbA1c target of <6.5%, (%): 11.21%
  Subjects achieving HbA1c target of <7%, %: 56.03%
  body weight, Median: 66.80 kg
Week 6, per-protocol set, response 1 = HbA1c change >0.5% or HbA1c <7%, enavogliflozin 0.3 mg, dapagliflozin 10 mg
  Subjects achieving therapeutic glycemic response 1, %: 87.07%
Week 6, per-protocol set, response 2 = HbA1c change >0.7% or HbA1c <7%, enavogliflozin 0.3 mg, dapagliflozin 10 mg
  Subjects achieving therapeutic glycemic response 2, %: 78.45%
Week 6, per-protocol set, response 3 = HbA1c change >1% or HbA1c <7%, enavogliflozin 0.3 mg, dapagliflozin 10 mg
  Subjects achieving therapeutic glycemic response 3, %: 70.69%
Week 12
  FPG change from baseline, LS mean (SE): −27.17(1.54) mg/dL
  HDL-C change from baseline, LS mean (SE): 3.18(0.62) mg/dL
  HOMA-β change from baseline, LS mean (SE): 7.78(1.94)
  HbA1c change from baseline, LS mean (SE): −0.87(0.04) % p
  LDL-C change from baseline, LS mean (SE): 2.95(1.79) mg/dL
  UACR change from baseline, LS mean (SE): −15.12(4.60) g/kg
  UGCR change from baseline, LS mean (SE): 58.21(2.07) mg/mg
  adiponectin change from baseline, LS mean (SE): 0.89(0.34) μg/mL
  body weight change from baseline, LS mean (SE): −2.72(0.20) kg
  diastolic blood pressure change from baseline, LS mean (SE): −4.30(0.69) mmHg
  fasting C-peptide change from baseline, LS mean (SE): −0.09(0.02) ng/ml
  leptin change from baseline, LS mean (SE): −1.97(0.48) ng/ml
  systolic blood pressure change from baseline, LS mean (SE): −6.43(0.88) mmHg
  total cholesterol change from baseline, LS mean (SE): 6.80(2.04) mg/dL
  triglyceride change from baseline, LS mean (SE): −3.23(5.25) mg/dL
Week 12, vs dapagliflozin
  FPG change from baseline, LS mean difference: -2.75 mg/dL
  HDL-C change from baseline, LS mean difference: 0.34 mg/dL
  HOMA-IR change from baseline, LS mean difference: −0.06
  HOMA-β change from baseline, LS mean difference: 2.55
  HbA1c change from baseline, LS mean difference: −0.04 % p
  LDL-C change from baseline, LS mean difference: 0.24 mg/dL
  Odds ratio for achieving HbA1c<6.5%: 1.44
  Odds ratio for achieving HbA1c<7%: 1.20
  Odds ratio, therapeutic response (HbA1c change >0.5% or HbA1c<7%): 1.09
  Odds ratio, therapeutic response (HbA1c change >0.7% or HbA1c<7%): 1.30
  Odds ratio, therapeutic response (HbA1c change >1% or HbA1c<7%): 1.31
  UACR change from baseline, LS mean difference: -3.35 g/kg
  UGCR change from baseline, LS mean difference: 13.37 mg/mg
  adiponectin change from baseline, LS mean difference: 0.19 µg/mL
  body weight change from baseline, LS mean difference: -0.01 kg
  diastolic blood pressure change from baseline, LS mean difference: −2.04 mmHg
  fasting C-peptide change from baseline, LS mean difference: -0.02 ng/mL
  leptin change from baseline, LS mean difference: -0.28 ng/mL
  systolic blood pressure change from baseline, LS mean difference: −1.37 mmHg
  total cholesterol change from baseline, LS mean difference: 1.40 mg/dL
  triglyceride change from baseline, LS mean difference: 8.79 mg/dL
[2]
  Change from baseline in HDL-C, ANCOVA LS mean difference: 0.34 mg/dL
  Change from baseline in LDL-C, ANCOVA LS mean difference: 0.24 mg/dL
  Change from baseline in total cholesterol, ANCOVA LS mean difference: 1.40 mg/dL
  Change from baseline in triglycerides, ANCOVA LS mean difference: 8.79 mg/dL
[3]
  Change from baseline in HDL-C, ANCOVA LS mean: 3.18 mg/dL
  Change from baseline in HDL-C, Mean: 3.17 mg/dL
  Change from baseline in HDL-C, Median: 3.00 mg/dL
  Change from baseline in LDL-C, ANCOVA LS mean: 2.95 mg/dL
  Change from baseline in LDL-C, Mean: 3.76 mg/dL
  Change from baseline in LDL-C, Median: 3.00 mg/dL
  Change from baseline in total cholesterol, ANCOVA LS mean: 6.80 mg/dL
  Change from baseline in total cholesterol, Mean: 7.79 mg/dL
  Change from baseline in total cholesterol, Median: 7.00 mg/dL
  Change from baseline in triglycerides, ANCOVA LS mean: -3.23 mg/dL
  Change from baseline in triglycerides, Mean: 0.59 mg/dL
  Change from baseline in triglycerides, Median: -3.00 mg/dL
  Fasting HDL-C, Mean: 49.21 mg/dL
  Fasting HDL-C, Median: 47.50 mg/dL
  Fasting LDL-C, Mean: 75.11 mg/dL
  Fasting LDL-C, Median: 72.00 mg/dL
  Fasting total cholesterol, Mean: 142.09 mg/dL
  Fasting triglycerides, Mean: 118.98 mg/dL
  Fasting triglycerides, Median: 98.50 mg/dL
  fasting Total cholesterol, Median: 136.00 mg/dL
[4]
  Change from baseline in diastolic blood pressure, ANCOVA LS mean: −4.30 mmHg
  Change from baseline in diastolic blood pressure, LS mean difference (enavogliflozin − dapagliflozin): −2.04 mmHg
